Assays:
TNF-α = TNF-α mRNA expression (qPCR) in zebra fish animal model of DSS-induced inflammatory bowel disease; format: in vivo, zebra fish (Danio rerio: AB); details: FIG. 5; for expression amount of TNF-α compared to DSS model group: zebra fish larvae, 0.5% DSS, 5 hours treatment, Chemical formula 1 0.3 μM and 1 μM
Method: As a zebra fish animal model of inflammatory bowel disease, wild-type zebra fish (Danio rerio: AB) was used, which was kept in an exclusive breeding facility at conditions including light/dark cycle of 14 hours/10 hours and temperature of 28° C. All the animal experiments were carried out according to the protocol of Ethics Committee for Animal Expectation, Healinno-LS (Registration No.: AEC-20210720-0001), and all the materials were sterilized first before they are used for experiment.
According to a treatment with 0.5% DSS (dextran sulfate sodium, M.W. 36,000-50,000, #160110, MP), which induces “ulcerative colitis” as inflammatory bowel disease by creating a damage in colonic epithelial cells, a zebra fish was induced to have inflammatory bowel disease. Then, by threating the zebra fish with the compound represented by Chemical formula 1 of the present invention at different concentrations (0.3 μM and 1 μM), inhibitory activity on inflammatory bowel disease was examined.
As a zebra fish animal model of DSS-induced ulcerative colitis, zebra fish larvae 3 days after fertilization (3 dpf; days post fertilization) were used. 3 dpf zebra fish larvae were added to a 24-well plate, i.e., 20 larvae per well, and treated with 0.5% DSS to induce ulcerative colitis. After keeping them to 6 dpf zebra fish larva period, DSS was removed, and then they were treated for 5 hours with the compound represented by Chemical formula 1 of the present invention.
The zebra fish larvae which have been treated with the compound represented by Chemical formula 1 of the present invention were then added with TRIzol reagent (300 μl), and then homogenized by using a tissue homogenizer (G20, GINKO). Homogenized zebra fish larvae were maintained for 5 minutes at room temperature, and then treated with chloroform (60 μl). After removing proteins and cell debris, the mixture was centrifuged for 15 minutes at 12,000×g, 4° C. […] Purity and concentration were measured by using a microplate reader (FLUOstar omega, BMG Labtech), and the extracted total RNA was kept at −80° C. […]

[1] = tested on: animal model of DSS-induced inflammatory bowel disease; experiment: Therapeutic effect in mouse model of DSS-induced inflammatory bowel disease (body weight, DAI, colon length); format: in vivo, mouse (C57BL/6); details: 5-ASA 100 mg/kg oral; for DAI / Colon length: Day 8, mouse, 2.5% DSS, Compound 1 2 mg/kg intraperitoneal; for DAI: 7 days, DSS group 11.75 ± 0.15; for Colon length: DSS group 4.9, normal control 8.4; for rate of body weight loss compared to group administered with DSS: mouse, 2.5% DSS 7 days, Chemical formula 1 2 mg/kg intraperitoneal, once a day for 7 days, FIG. 6
From the text: As a mouse with induced inflammatory bowel disease, 6 week-old C57BL/6 was used, and the animal was induced to have the disease by administration of DSS (dextran sulfate sodium, MW 36000 to 50000, MP Biomedicals), Test groups were divided into the followings; normal control which has not been treated with any chemical (3 animals); group administered with DSS (6 animals); group administered with DSS+5-ASA (5-aminosalicylic acid, Sigma) (6 animals); and group administered with DSS+compound represented by Chemical formula 1 of the present invention (6 animals).
Inflammatory bowel disease is generally evaluated in terms of the disease activity index (DAI) based on clinical signs like body weight loss, diarrhea, and bloody feces. DAI is measured by giving a score to each of body weight loss rate, state of feces, and state of bloody feces (Table 1).
In this example, evaluation was made for 7 days for each test group. For all test groups except normal control, 100 ml of drinking water with 2.5% DSS were supplied for 7 days, while the water exchange was made every 2 days, to induce inflammatory bowel disease. The group administered with 5-ASA was orally administered, once a day for 7 days, with 100 mg/kg 5-ASA dispersed in 2.5% CMC (carboxymethylcellulose sodium, Sigma). The compound represented by Chemical formula 1 of the present invention (2 mg/kg) was administered via intraperitoneal injection, once a day for 7 days. From the first day of test, mouse of each test group was weighed to measure the rate of body weight loss. […] However, the weight loss was observed from Day 5 and thereafter in every test group induced to have inflammatory bowel disease by a treatment with DSS.
Evaluation of disease activity index (DAI) was also carried out, once a day from the first day of the test. From all test groups having inflammatory bowel disease induced by DSS treatment except normal control which has not been treated with any chemical, higher DAI was shown from Day 5 and thereafter.
Sum of each item analyzed on Day 8 based on the evaluation index of Table 1 was described as disease activation index (DAI) in Table 2.
With regard to the inflammatory response to inflammatory bowel disease, level of the response can be evaluated in terms of the decrease in colon length. Mouse in each test group was sacrificed on Day 8 and the colon was removed from the animal. Colon length was measured from the removed colon.

| SMILES | reduction of transcription amount of proinflammatory cytokines (TNF-α; zebra fish DSS model, TNF-α and IL-1β, compared with 5-ASA and prednisolone) | expression amount of TNF-α compared to DSS model group (TNF-α) | DAI [1] | Colon length [1] | rate of body weight loss compared to group administered with DSS [1] |
| --- | --- | --- | --- | --- | --- |
| COC(=O)C[C@H](OC(=O)/C=C/c1ccc(O)c(O)c1)c1ccc(O)c(O)c1 [Compound 1, 3-[3,4-dihydroxyphenyl]acrylic acid 1-[3,4-dihydroxyphenyl]-2-methoxycarbonylethyl ester] | much lower concentration than 5-ASA and prednisolone | statistically significantly lower | 8.75 ± 0.21 | 7.4 cm | lower rate of body weight loss |
| Nc1ccc(O)c(C(=O)O)c1 [Compound 5-ASA, 5-aminosalicylic acid, reference compound] |  | statistically significantly lower | 10.67 ± 0.19 | 5.7 cm | lower rate of body weight loss |
